Peptide text beside a SMILES is read from it. * marks the point of attachment. Palmitoyl = CCCCCCCCCCCCCCCC(=O)*
Assays:
[1] = system: HepG2 cells; assay: Cytotoxicity assay (MTT); format: cell-based, human
Experimental: HepG2 cells were seeded in a 96-well plate at a density of 10,000 cells/well in growth medium (DMEM high-glucose, 10% fetal bovine serum). The next day, growth medium was changed and the peptide of formula (I) was added once with ascending dose for 24 h, 48 or 72 h or for 48 h with repeating once in 24 h. Similarly, the peptide of formula (II) was added once with ascending dose for 24 h or 48 h or for 48 h with repeating once in 24 h. Cells were incubated for 4 h with 5 mg/L MTT and 100 μL of DMSO was added in the well. Absorbance was recorded at 570 and 660 nm using the microplate spectrophotometer system (Varioscan flash). Cell viability was calculated by subtracting the 570 nm absorbance to the background measured at 660 nm.

[2] = system: HUVEC cells; assay: Endothelial nitric oxide (NO) production, DAF-FM-DA probe; format: cell-based, human; conditions: 1 μM, 10 min; abolished by IF1
Experimental: Nitric oxide (NO) was detected using a DAF-FM-DA probe (D2321, Sigma-Aldrich) which forms fluorescent benzotriazole when it reacts with NO. HUVEC cells (PromoCell #C-12203) were seeded in 96-well plates (10,000 cells per well) and cultured in endothelial cell basal medium 2 (PromoCell #C-22211) supplemented with GM2 supplement Mix (PromoCell #C-39211), until 80-90% confluence. The medium was then replaced with M-199 without serum for 4 h, and the cells were incubated for 45 min with DAF-FM-DA (5 μM) diluted in PBS. Cells were treated with increasing concentrations of the different peptides or apoA-I (10 μM) purified from human plasma or histamine (1 mM) as positive control. In another set of experiments, cells were incubated with inhibitors (IF1, 1 μM) for 10 min before treatment with peptides or apoA-I. The fluorescence was recorded for 30 min (λex=495 nm, λem=515 nm) with a Tecan Flash Multimode Reader (Thermo Fisher Scientific). Fluorescence for each condition was compared with the value obtained in untreated cells, and results were expressed as the fold change as compared with the basal condition (untreated cells).

[3] = target: T1, human F1Fo-ATPase (Homo sapiens, UniProt P06576); assay: Surface plasmon resonance (SPR) binding to purified human F1Fo-ATPase; conditions: SPR single-cycle kinetics; His-tag / biotin variant of peptide immobilized, F1Fo-ATPase as analyte; read-out: KD (affinity between F1Fo-ATPase and immobilized peptide)
T1 construct: Human F1Fo-ATPase was purified from HepG2 cells by immunocapture; endogenous in cells; host or cells: HepG2 cells; complex isolated by immunocapture with anti-ATP synthase antibody 12F4AD8AF8 (#ab109867, Abcam)
Experimental: Surface plasmon resonance (SPR) assays. Binding studies based on SPR technology were performed on a BIAcore T200 optical biosensor instrument (GE Healthcare®, Uppsala, Sweden). The peptide of formula (I) with C-terminal 6×His-tag (Formula (I)-His-tag: CH3CO-[SEQ ID NO: 1]-HHHHHH) and the peptide of formula (II) with C-terminal biotin (Formula (II)-Biotin: CH3CO-[SEQ ID NO: 1]-K-[palmitoyl]-AEEAc-K-[biotinyl]-NH2) were custom-synthesized by BACHEM AG (Bubendorf, Switzerland) with >90% purity in trifluoroacetate salt. Human F1Fo-ATPase was purified from HepG2 cells by immunocapture using mouse monoclonal anti-ATP synthase antibody (12F4AD8AF8, #ab109867, Abcam) according to manufacturer's instructions.
Immobilization of the peptide of formula (I)-6His-tag was performed on a nitrilotriacetic acid (NTA) sensorchip in HBS-P+ buffer (10 mM Hepes pH 7.4, 150 mM NaCl, and 0.05% surfactant P20) (GE Healthcare). To saturate the NTA surface with Ni2^+, flow cells (Fc) were loaded with 0.5 mM NiCl2 solution. The channel Fc1 was left empty and used as a reference surface for nonspecific binding measurements. Formula (I)-6×His was injected in the channel Fc2 at a flow-rate of 5 μL/min and stabilized by amine coupling (Laboratory guideline 29-0057-17 AB). The total amount of immobilized Formula (I)-His-tag was 300-350 resonance units (RU): final concentration 25 μg/mL. […]

Compound	cell viability (MTT) ([1]; 0.1 to 25 μM, single dose 24 or 48 h, or multiple doses at 24 and 48 h)	stimulation of NO production by endothelial cells [2]	Kd [3]	cell viability (MTT) ([1]; 0.1 to 50 μM, single dose 24, 48 or 72 h, or multiple doses at 24 and 48 h)
CCCCCCCCCCCCCCCC(=O)NCCCC[C@H](NC(=O)[C@H](CCC(=O)O)NC(=O)[C@H](CCCNC(=N)N)NC(=O)[C@H](CO)NC(=O)[C@H](CCC(N)=O)NC(=O)[C@H](C)NC(=O)[C@H](CCCNC(=N)N)NC(=O)[C@H](Cc1ccccc1)NC(=O)[C@H](Cc1ccc(O)cc1)NC(=O)[C@H](CCCNC(=N)N)NC(=O)[C@H](CCC(=O)O)NC(=O)[C@H](CCC(=O)O)NC(=O)[C@H](CCC(=O)O)NC(=O)[C@H](C)NC(=O)[C@H](CCC(N)=O)NC(=O)[C@H](CCC(=O)O)NC(=O)[C@H](CCCNC(=N)N)NC(=O)[C@H](CCCCN)NC(=O)CNC(=O)[C@H](Cc1ccccc1)NC(=O)[C@H](C)NC(=O)CNC(=O)CNC(=O)[C@H](C)NC(=O)[C@H](CCC(=O)O)NC(=O)[C@H](CCCNC(=N)N)NC(=O)[C@@H](NC(=O)[C@H](CO)NC(=O)CNC(=O)[C@H](C)NC(=O)CNC(=O)[C@H](CCCNC(=N)N)NC(C)=O)[C@@H](C)CC)C(N)=O [peptide of formula (II), CH3CO-[SEQ ID NO: 1]-K-[palmitoyl]-NH2] (Ac-RGAGSIREAGGAFGKREQAEEERYFRAQSREK(Palmitoyl)-NH2)	no impact	about 50%	4.45 nM	–
Ac-RGAGSIREAGGAFGKREQAEEERYFRAQSRE-NH2 [peptide of formula (I), CH3CO-[SEQ ID NO: 1]-NH2]	–	about 50%	19 nM	no impact

Source: patent US20230050846A1, “TREATMENT OF HEPATIC AND CARDIOVASCULAR DISORDERS” (LIFESEARCH, priority 2019, published 2023)
